Biological target: Isoform Bcl-X(L) of Bcl-2-like protein 1 (Bcl-xL) (Homo sapiens, UniProt Q07817)
Assay: DELFIA Assay
Description: In order to figure whether these compounds were capable of displacing the interactions between Bci-XL and it's pro-apoptotic counterparts, it was testes in a heterogeneous lanthanide-based assay that have recently developed based on the DELFIA (dissociation enhanced lanthanide fluoro-immuno assay)technology (Perkin-Elmer).

Isoform Bcl-X(L) of Bcl-2-like protein 1 (Bcl-xL), sequence (Q07817 whole entry G70A, canonical isoform): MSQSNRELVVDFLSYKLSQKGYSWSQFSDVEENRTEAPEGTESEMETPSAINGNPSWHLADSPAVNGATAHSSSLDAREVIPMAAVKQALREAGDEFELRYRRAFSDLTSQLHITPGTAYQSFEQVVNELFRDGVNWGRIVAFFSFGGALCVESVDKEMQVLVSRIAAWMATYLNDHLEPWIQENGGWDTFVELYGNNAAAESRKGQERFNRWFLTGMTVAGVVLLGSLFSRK

Structure (SMILES)	IC50	Kd
Cc1csc(NC(=O)c2ccccc2C(=O)O)c1-c1nc2ccccc2s1 [BI-21C4]	3.3 µM	–
N#Cc1c(-c2ccc3c(c2)OCO3)cc(-c2ccccc2O)[nH]c1=O [BI-21C5]	5.1 µM	19.8 µM
O=C(O)c1ccccc1C(=O)c1ccc(Sc2ccc(Cl)cc2)c([N+](=O)[O-])c1 [BI-21C6]	0.5 µM	–
O=C(O)c1ccccc1C(=O)c1ccc(Sc2ccccc2)c([N+](=O)[O-])c1 [BI-21C7]	5.7 µM	–
